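Dose response: 5 concentrations. Exposure: 48 h. Format: 96-well plates. Endpoint: linear interpolation; highest concentration if not reached. TGI: concentration producing complete growth inhibition.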
Assays:
Assay in all cases: NCI-60 cell line screen, 48 h
SK-MEL-28 melanoma = system: SK-MEL-28 melanoma
TK-10 renal = system: TK-10 renal
RPMI-8226 leukemia = system: RPMI-8226 leukemia
CAKI-1 renal = system: CAKI-1 renal
DU-145 prostate = system: DU-145 prostate
COLO 205 colon = system: COLO 205 colon
MDA-MB-231 breast = system: MDA-MB-231 breast
UO-31 renal = system: UO-31 renal
SK-MEL-2 melanoma = system: SK-MEL-2 melanoma
HCC-2998 colon = system: HCC-2998 colon
HCT-15 colon = system: HCT-15 colon
MDA-N = system: MDA-N
SR leukemia = system: SR leukemia
OVCAR-8 ovarian = system: OVCAR-8 ovarian
PC-3 prostate = system: PC-3 prostate
OVCAR-3 ovarian = system: OVCAR-3 ovarian
U251 CNS = system: U251 CNS
NCI-H23 lung = system: NCI-H23 lung
CCRF-CEM leukemia = system: CCRF-CEM leukemia
SK-MEL-5 melanoma = system: SK-MEL-5 melanoma
LOX IMVI melanoma = system: LOX IMVI melanoma
HL-60(TB) leukemia = system: HL-60(TB) leukemia
SF-295 CNS = system: SF-295 CNS
BT-549 breast = system: BT-549 breast
UACC-257 melanoma = system: UACC-257 melanoma
MALME-3M melanoma = system: MALME-3M melanoma
SNB-19 CNS = system: SNB-19 CNS
MOLT-4 leukemia = system: MOLT-4 leukemia
A549 NSCLC = system: A549 NSCLC
OVCAR-4 ovarian = system: OVCAR-4 ovarian
ACHN renal = system: ACHN renal
HOP-62 NSCLC = system: HOP-62 NSCLC
MCF7 breast = system: MCF7 breast
NCI/ADR-RES ovarian = system: NCI/ADR-RES ovarian
OVCAR-5 ovarian = system: OVCAR-5 ovarian
K-562 leukemia = system: K-562 leukemia
MDA-MB-435 = system: MDA-MB-435
M14 melanoma = system: M14 melanoma
SN12C renal = system: SN12C renal
KM12 colon = system: KM12 colon
NCI-H460 lung = system: NCI-H460 lung
EKVX NSCLC = system: EKVX NSCLC
HCT-116 colon = system: HCT-116 colon
UACC-62 melanoma = system: UACC-62 melanoma
HT29 colon = system: HT29 colon
NCI-H522 lung = system: NCI-H522 lung
A498 renal = system: A498 renal
RXF 393 renal = system: RXF 393 renal
786-0 renal = system: 786-0 renal
NCI-H226 lung = system: NCI-H226 lung
HOP-92 NSCLC = system: HOP-92 NSCLC
SW-620 colon = system: SW-620 colon
SK-OV-3 ovarian = system: SK-OV-3 ovarian
SF-268 CNS = system: SF-268 CNS
SF-539 CNS = system: SF-539 CNS
IGROV1 ovarian = system: IGROV1 ovarian
SNB-75 CNS = system: SNB-75 CNS

For `CC(C(=O)O)c1ccc(-n2nnc3c(=O)[nH][nH]c(=O)c32)cc1` (configuration not stated), the TGI (SK-MEL-28 melanoma) was over 100 µM, the TGI (TK-10 renal) was over 100 µM and the TGI (RPMI-8226 leukemia) was over 100 µM. It also gave a TGI (CAKI-1 renal) of over 100 µM, a TGI (DU-145 prostate) of over 100 µM and a TGI (COLO 205 colon) of over 100 µM. It also gave a TGI (MDA-MB-231 breast) of over 100 µM, a TGI (UO-31 renal) of over 100 µM and a TGI (SK-MEL-2 melanoma) of over 100 µM. The TGI (HCC-2998 colon) was over 100 µM, the TGI (HCT-15 colon) was over 100 µM and the TGI (MDA-N) was over 100 µM. The TGI (SR leukemia) was over 100 µM, the TGI (OVCAR-8 ovarian) was over 100 µM and the TGI (PC-3 prostate) was over 100 µM. The TGI (OVCAR-3 ovarian) was over 100 µM, the TGI (U251 CNS) was over 100 µM and the TGI (NCI-H23 lung) was over 100 µM. For the same compound, the TGI (CCRF-CEM leukemia) was over 100 µM, the TGI (SK-MEL-5 melanoma) was over 100 µM and the TGI (LOX IMVI melanoma) was over 100 µM. The TGI (HL-60(TB) leukemia) was over 100 µM, the TGI (SF-295 CNS) was over 100 µM and the TGI (BT-549 breast) was over 100 µM. The TGI (UACC-257 melanoma) was over 100 µM, the TGI (MALME-3M melanoma) was over 100 µM and the TGI (SNB-19 CNS) was over 100 µM. The TGI (MOLT-4 leukemia) was over 100 µM, the TGI (A549 NSCLC) was over 100 µM and the TGI (OVCAR-4 ovarian) was over 100 µM. The TGI (ACHN renal) was over 100 µM, the TGI (HOP-62 NSCLC) was over 100 µM and the TGI (MCF7 breast) was over 100 µM. The TGI (NCI/ADR-RES ovarian) was over 100 µM, the TGI (OVCAR-5 ovarian) was over 100 µM and the TGI (K-562 leukemia) was over 100 µM. The TGI (MDA-MB-435) was over 100 µM, the TGI (M14 melanoma) was over 100 µM and the TGI (SN12C renal) was over 100 µM. For the same compound, the TGI (KM12 colon) was over 100 µM, the TGI (NCI-H460 lung) was over 100 µM and the TGI (EKVX NSCLC) was over 100 µM. It also gave a TGI (HCT-116 colon) of over 100 µM.
With `COc1cc2c[n+](C)c3c4cc(OC)c(OC)cc4c(OCc4ccccc4)cc3c2cc1OC` the TGI (SK-MEL-28 melanoma) was 2.55 µM, the TGI (TK-10 renal) was over 100 µM and the TGI (RPMI-8226 leukemia) was 77.2 µM. The TGI (CAKI-1 renal) was over 90.7 µM, the TGI (DU-145 prostate) was 9.81 µM and the TGI (COLO 205 colon) was 1.96 µM. For the same compound, the TGI (MDA-MB-231 breast) was 6.69 µM, the TGI (UACC-62 melanoma) was 1.8 µM and the TGI (HT29 colon) was 7.29 µM. The TGI (UO-31 renal) was over 100 µM, the TGI (SK-MEL-2 melanoma) was 3.37 µM and the TGI (NCI-H522 lung) was 1.5 µM. It also gave a TGI (HCC-2998 colon) of 41.3 µM, a TGI (HCT-15 colon) of over 100 µM and a TGI (MDA-N) of 2.53 µM. For the same compound, the TGI (A498 renal) was over 86.7 µM, the TGI (SR leukemia) was over 100 µM and the TGI (OVCAR-8 ovarian) was 5.02 µM. For the same compound, the TGI (RXF 393 renal) was 6.19 µM, the TGI (PC-3 prostate) was 3.41 µM and the TGI (786-0 renal) was 12.3 µM. For the same compound, the TGI (OVCAR-3 ovarian) was 3.97 µM, the TGI (U251 CNS) was 1.08 µM and the TGI (NCI-H226 lung) was 3.94 µM. It also gave a TGI (NCI-H23 lung) of 4.36 µM, a TGI (HOP-92 NSCLC) of 3.24 µM and a TGI (SK-MEL-5 melanoma) of 2.69 µM. The TGI (SF-295 CNS) was 96.9 µM, the TGI (BT-549 breast) was 1.71 µM and the TGI (UACC-257 melanoma) was 3.38 µM. For the same compound, the TGI (MALME-3M melanoma) was 3.31 µM, the TGI (SNB-19 CNS) was 1.92 µM and the TGI (MOLT-4 leukemia) was over 80.1 µM. The TGI (A549 NSCLC) was over 100 µM, the TGI (OVCAR-4 ovarian) was over 27.5 µM and the TGI (ACHN renal) was over 100 µM. The TGI (SW-620 colon) was over 100 µM, the TGI (HOP-62 NSCLC) was 10.5 µM and the TGI (MCF7 breast) was 5.05 µM. The TGI (NCI/ADR-RES ovarian) was over 100 µM, the TGI (OVCAR-5 ovarian) was over 100 µM and the TGI (SK-OV-3 ovarian) was over 100 µM. The TGI (K-562 leukemia) was over 100 µM, the TGI (MDA-MB-435) was 2.34 µM and the TGI (M14 melanoma) was 4.2 µM. The TGI (SN12C renal) was over 100 µM, the TGI (NCI-H460 lung) was over 100 µM and the TGI (EKVX NSCLC) was over 100 µM. It also gave a TGI (SF-268 CNS) of 1.97 µM.
Work on `CC(=O)NC(CC(C)C)C(=O)NC(CC(C)C)C(=O)NC(C=O)CCCN=C(N)N` (configuration not stated) yielded a TGI (SK-MEL-28 melanoma) of over 100 µM, a TGI (TK-10 renal) of over 100 µM and a TGI (RPMI-8226 leukemia) of over 100 µM. The TGI (CAKI-1 renal) was over 100 µM, the TGI (DU-145 prostate) was over 100 µM and the TGI (COLO 205 colon) was over 100 µM. It also gave a TGI (MDA-MB-231 breast) of over 100 µM, a TGI (UACC-62 melanoma) of over 100 µM and a TGI (HT29 colon) of over 100 µM. It also gave a TGI (SF-539 CNS) of over 100 µM, a TGI (UO-31 renal) of over 100 µM and a TGI (SK-MEL-2 melanoma) of over 100 µM. For the same compound, the TGI (NCI-H522 lung) was over 100 µM, the TGI (HCC-2998 colon) was over 100 µM and the TGI (HCT-15 colon) was over 100 µM. It also gave a TGI (MDA-N) of over 100 µM, a TGI (A498 renal) of over 100 µM and a TGI (SR leukemia) of over 100 µM. For the same compound, the TGI (IGROV1 ovarian) was over 100 µM, the TGI (OVCAR-8 ovarian) was over 100 µM and the TGI (PC-3 prostate) was over 100 µM. The TGI (786-0 renal) was over 100 µM, the TGI (OVCAR-3 ovarian) was over 100 µM and the TGI (U251 CNS) was over 100 µM. For the same compound, the TGI (NCI-H226 lung) was over 100 µM, the TGI (NCI-H23 lung) was over 100 µM and the TGI (CCRF-CEM leukemia) was over 100 µM. It also gave a TGI (HOP-92 NSCLC) of over 100 µM, a TGI (SK-MEL-5 melanoma) of over 100 µM and a TGI (LOX IMVI melanoma) of over 100 µM. For the same compound, the TGI (SF-295 CNS) was over 100 µM, the TGI (BT-549 breast) was over 100 µM and the TGI (UACC-257 melanoma) was over 100 µM. The TGI (MALME-3M melanoma) was over 100 µM, the TGI (SNB-19 CNS) was over 100 µM and the TGI (MOLT-4 leukemia) was over 100 µM. It also gave a TGI (A549 NSCLC) of over 100 µM, a TGI (SNB-75 CNS) of over 100 µM and a TGI (OVCAR-4 ovarian) of over 100 µM. It also gave a TGI (ACHN renal) of over 100 µM, a TGI (SW-620 colon) of over 100 µM and a TGI (HOP-62 NSCLC) of over 100 µM. It also gave a TGI (MCF7 breast) of over 100 µM, a TGI (NCI/ADR-RES ovarian) of over 100 µM and a TGI (OVCAR-5 ovarian) of over 100 µM. It also gave a TGI (SK-OV-3 ovarian) of over 100 µM, a TGI (K-562 leukemia) of over 100 µM and a TGI (MDA-MB-435) of over 100 µM. It also gave a TGI (M14 melanoma) of over 100 µM, a TGI (SN12C renal) of over 100 µM and a TGI (KM12 colon) of over 100 µM. It also gave a TGI (NCI-H460 lung) of over 100 µM, a TGI (EKVX NSCLC) of over 100 µM and a TGI (HCT-116 colon) of over 100 µM. For the same compound, the TGI (SF-268 CNS) was over 100 µM.

— PubChem BioAssay (NCI)
